Experimental findings from patent publication US10844027B2, “Carboxylic diarylthiazepineamines as mu-opioid receptor agonists” (THE TRUSTEES OF COLUMBIA UNIVERSITY IN THE CITY OF NEW YORK, priority 2015, dated 2020) are described below.

The target of data set [1] is T1, human mu-opioid receptor (MOR) (Homo sapiens, UniProt P35372).
T1 construct: expressed in transfected cells; host or cells: HEK-293T
Kind of data set: BRET assay measuring G protein activation, agonist activity at human MOR. The data set is classed as cell-based. The method, then: After 24 hours the media was changed, and the experiment was performed 24 hours later (48 hours after transfection).
Transfected cells were dissociated and re-suspended in phosphate-buffered saline (PBS). […] The microplate was centrifuged and the cells were re-suspended in PBS. Then 5 μM of the luciferase substrate coelenterazine H was added to each well for 5 minutes. Following coelenterazine H addition, ligands were added and the BRET signal was measured at 5 minutes on a PHERAstar FS plate reader. Quantification of the BRET signal required calculating the ratio of the light emitted by the energy acceptor, mVenus (510-540 nm), over the light emitted by the energy donor, RLuc8 (485 nm). […] Dose response curves were fit using a three-parameter logistics equation in GraphPad Prism 6.
For orientation: Bioluminescence resonance energy transfer reports proximity on the nanometre scale.

The target in data set [2] is T2, human delta-opioid receptor (DOR) (Homo sapiens, UniProt P41143).
T2 construct: expressed in transfected cells; host or cells: HEK-293T
T2 sequence (P41143 whole entry): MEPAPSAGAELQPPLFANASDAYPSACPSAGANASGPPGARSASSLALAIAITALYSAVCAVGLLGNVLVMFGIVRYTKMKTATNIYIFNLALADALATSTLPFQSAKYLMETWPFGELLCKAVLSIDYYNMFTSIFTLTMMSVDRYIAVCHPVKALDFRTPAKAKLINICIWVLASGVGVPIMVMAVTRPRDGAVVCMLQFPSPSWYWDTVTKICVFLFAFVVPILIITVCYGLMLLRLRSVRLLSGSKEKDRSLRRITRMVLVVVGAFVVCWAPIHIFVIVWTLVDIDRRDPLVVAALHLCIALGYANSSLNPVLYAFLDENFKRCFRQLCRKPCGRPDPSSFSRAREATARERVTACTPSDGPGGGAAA
Kind of data set: BRET assay measuring G protein activation, agonist activity at human DOR. It is filed as cell-based. The protocol:
The diarylthiazepinamine esters (6) and carboxylic acids (7) were tested for agonist activity at the human mu-opioid receptor (MOR) and delta-opioid receptor (DOR) using bioluminescence resonance energy transfer (BRET) assays measuring G protein activation as previously described (Table 1) (Rives, M.-L. et al. 2012; Negri, A. et al. 2013).
Human MOR or DOR cDNA was transfected alongside GαoB with RLuc8 inserted at position 91 (GαoB—RLuc8), Gβ1 (β1), and Gγ2 fused to the full-length mVenus at its N terminus (mVenus-γ2) into HEK-293T cells (5×10^6 cells/plate) in 10-cm dishes using PEI (Polysciences Inc.; Warrington, Pa.) in a 1:1 ratio diluted in Opti-MEM (Life Technologies Corp.; Grand Island, N.Y.) to assay for G protein activation as described previously (Rives, M.-L. et al. 2012; Negri, A. et al. 2013). Cells were maintained in Dulbecco's Modified Eagle Medium (high glucose #11965; Life Technologies) supplemented with 10% FBS (Premium Select, Atlanta Biologicals; Atlanta, Ga.) and 100 U/mL penicillin and 100 μg/mL streptomycin (#15140, Life Technologies). After 24 hours the media was changed, and the experiment was performed 24 hours later (48 hours after transfection).
Transfected cells were dissociated and re-suspended in phosphate-buffered saline (PBS). Approximately 200,000 cells/well were added to a black-framed, white well 96-well plate (#60050; Perkin Elmer; Waltham, Mass.). The microplate was centrifuged and the cells were re-suspended in PBS. Then 5 μM of the luciferase substrate coelenterazine H was added to each well for 5 minutes. Following coelenterazine H addition, ligands were added and the BRET signal was measured at 5 minutes on a PHERAstar FS plate reader. Quantification of the BRET signal required calculating the ratio of the light emitted by the energy acceptor, mVenus (510-540 nm), over the light emitted by the energy donor, RLuc8 (485 nm). […] Dose response curves were fit using a three-parameter logistics equation in GraphPad Prism 6.

Data set [3] in a line: Brain pharmacokinetics of tianeptine and its 5-carbon metabolite (7i) in mice. The method, then: Brain samples were collected from three mice at 0.08, 0.25, 0.5, 1, 2, 4, 8 and 24 h, homogenized using ice-cold phosphate buffer saline (pH 7.4), and stored below −70° C. until analysis. Total homogenate volume was three times the tissue weight. All samples were processed for analysis by protein precipitation using acetonitrile (ACN) and analyzed with a fit-for-purpose LC/MS/MS method (LLOQ—1.01 ng/mL in brain). Pharmacokinetic parameters were calculated using the non-compartmental analysis tool of Phoenix WinNonlin® (Version 6.3).

Where [4] appears, read: brain, C57BL/6 mice, single injection (30 mg/kg, i.p.) of tianeptine.
The mark [5] stands for this setting: brain, mice, after tianeptine 30 mg/kg i.p.
Where [6] appears, read: male, C57BL/6, mouse, in vivo, ip, 30 mg/kg.

Structures are written as SMILES. Where a name gives a salt, the structure may show the parent alone.

T1 sequence (P35372 whole entry): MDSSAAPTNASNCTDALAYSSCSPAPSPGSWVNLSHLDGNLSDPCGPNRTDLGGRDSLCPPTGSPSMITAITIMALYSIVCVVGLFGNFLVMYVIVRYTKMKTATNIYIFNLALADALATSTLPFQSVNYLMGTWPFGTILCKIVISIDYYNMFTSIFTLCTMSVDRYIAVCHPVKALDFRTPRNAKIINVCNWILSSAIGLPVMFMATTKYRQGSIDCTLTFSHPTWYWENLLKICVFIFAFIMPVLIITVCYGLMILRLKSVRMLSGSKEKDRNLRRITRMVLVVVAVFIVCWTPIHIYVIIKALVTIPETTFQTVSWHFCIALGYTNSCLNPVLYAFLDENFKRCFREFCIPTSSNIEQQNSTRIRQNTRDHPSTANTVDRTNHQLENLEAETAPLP

As for `CN1c2ccccc2C(NCCCCCC(=O)O)c2ccc(Br)cc2S1(=O)=O` (stereo not shown) [Compound 7f, 6-((3-Bromo-6-methyl-5,5-dioxido-6,11-dihydrodibenzo[c,f][1,2]thiazepin-11-yl)amino)hexanoic acid hydrochloride salt], the results for the EC50 in data set [1] and in data set [2] were 0.133 ± 0.0132 µM and 23.7 ± 1.5 µM, respectively.
In the case of `CN1c2ccccc2C(NCCCCC(=O)O)c2ccc(Cl)cc2S1(=O)=O.Cl` (stereo not shown) [Compound 7i, 5-((3-Chloro-6-methyl-5,5-dioxido-6,11-dihydrodibenzo[c,f][1,2]thiazepin-11-yl)amino)pentanoic acid hydrochloride salt], the midpoint of the response in data set [1], the EC50, lay at 0.361 ± 0.0929 µM. In data set [3] (setting [4]), the AUClast amounted to 5963 ng·h/g and the CL amounted to 78 mL/min/kg. Further, in data set [3] (setting [5]), the “brain exposure (as measured by AUC) compared to the parent compound (tianeptine)” value was “greater” and the “half-life compared to the parent compound (tianeptine)” value is listed as “significantly longer”. Moreover, in data set [3] (setting [6]), the Cmax (in general, the highest concentration seen after dosing) turned out to be 2860 ng/g; the Tmax (usually the time at which the peak concentration occurs) stood at 0.5 h; the half-life – broadly, the time in which the quantity being followed falls by half – is 2.33 h. For the same compound, the EC50 (as a rule, the concentration at which the effect is half-maximal) in data set [2] is more than 10 µM.
`CCOC(=O)CCCCNC1c2ccccc2N(C)S(=O)(=O)c2cc(Cl)ccc21` (stereo not shown) [Compound 6i, Ethyl 5-((3-chloro-6-methyl-5,5-dioxido-6,11-dihydrodibenzo[c,f][1,2]thiazepin-11-yl)amino)pentanoate]: the half-maximal effective concentration (EC50) in data set [1] is 0.533 ± 0.267 µM; in data set [2], more than 10 µM.
Take `CN1c2ccccc2C(NCCC(=O)O)c2ccc(I)cc2S1(=O)=O` (stereo not shown) [Compound 7b, 3-((3-Iodo-6-methyl-5,5-dioxido-6,11-dihydrodibenzo[c,f][1,2]thiazepin-11-yl)amino) propanoic acid hydrochloride salt]: the 50% effective concentration (EC50) in data set [1] was 1.2 ± 0.3 µM; in data set [2] it was more than 10 µM.
`CN1c2ccccc2C(NCCCCCCC(=O)O)c2ccc(Cl)cc2S1(=O)=O` (stereo not shown) [Tianeptine, tianeptine, reference compound]: the EC50 in data set [2] came to 37.4 ± 11.2 µM.
Consider `CN1c2ccccc2C(NCCCC(=O)O)c2ccc(Br)cc2S1(=O)=O` (stereo not shown) [Compound 7c, 4-((3-Bromo-6-methyl-5,5-dioxido-6,11-dihydrodibenzo[c,f][1,2]thiazepin-11-yl)amino)butanoic acid hydrochloride salt], for which the EC50 in data set [1] was 2 ± 0.3 µM; in data set [2], more than 10 µM.
For `CN1c2ccccc2C(NCCCCCC(=O)O)c2ccc(I)cc2S1(=O)=O` (stereo not shown) [Compound 7g, 6-((3-Iodo-6-methyl-5,5-dioxido-6,11-dihydrodibenzo[c,f][1,2]thiazepin-11-yl)amino)hexanoic acid hydrochloride salt], the concentration giving a half-maximal response (EC50) came to 0.0243 ± 0.0045 µM in data set [1] and 5.1 ± 1.4 µM in data set [2].
Take `CCOC(=O)CCNC1c2ccccc2N(C)S(=O)(=O)c2cc(Br)ccc21` (stereo not shown) [Compound 6a, Ethyl 3-((3-bromo-6-methyl-5,5-dioxido-6,11l-dihydrodibenzo[c,f][1,2]thiazepin-11-yl)amino)propanoate]: the results for the concentration giving a half-maximal response (EC50) in data set [1] and in data set [2] were 5.9 ± 1 µM and more than 10 µM, respectively.
Consider `CN1c2ccccc2C(NCCC(=O)O)c2ccc(Br)cc2S1(=O)=O` (stereo not shown) [Compound 7a, 3-((3-Bromo-6-methyl-5,5-dioxido-6,1-dihydrodibenzo[c,f][1,2]thiazepin-11-yl)amino)propanoic acid hydrochloride salt], for which the figures for the EC50 in data set [1] and in data set [2] were 4.7 ± 1.4 µM and more than 10 µM, respectively.
The matching figures for `CCOC(=O)CCCCNC1c2ccccc2N(C)S(=O)(=O)c2cc(I)ccc21` (stereo not shown) [Compound 6e, Ethyl 5-((3-iodo-6-methyl-5,5-dioxido-6,11-dihydrodibenzo[c,f][1,2]thiazepin-11-yl)amino)pentanoate]: 0.0282 ± 0.0032 µM and 6.8 ± 0.03 µM.
In the case of `CCOC(=O)CCCCCNC1c2ccccc2N(C)S(=O)(=O)c2cc(I)ccc21` (stereo not shown) [Compound 6g, Ethyl 6-((3-iodo-6-methyl-5,5-dioxido-6,11l-dihydrodibenzo[c,f][1,2]thiazepin-11-yl)amino)hexanoate], the EC50 worked out at 0.0485 ± 0.0049 µM in data set [1] and 8.5 ± 6.3 µM in data set [2].
The matching figures for `CCOC(=O)CCNC1c2ccccc2N(C)S(=O)(=O)c2cc(I)ccc21` (stereo not shown) [Compound 6b, Ethyl 3-((3-iodo-6-methyl-5,5-dioxido-6,11-dihydrodibenzo[c,f][1,2]thiazepin-11-yl)amino)propanoate]: 1.6 ± 0.2 µM and more than 10 µM.
On to `CCOC(=O)CCCCNC1c2ccccc2N(C)S(=O)(=O)c2cc(Br)ccc21` (stereo not shown) [Compound 6d, Ethyl 5-((3-bromo-6-methyl-5,5-dioxido-6,11-dihydrodibenzo[c,f][1,2]thiazepin-11-yl)amino)pentanoate], for which, in data set [1], it took 0.12 µM to reach a half-maximal effect (EC50).
Regarding `CCOC(=O)CCCNC1c2ccccc2N(C)S(=O)(=O)c2cc(Br)ccc21` (stereo not shown) [Compound 6c, Ethyl 4-((3-bromo-6-methyl-5,5-dioxido-6,11-dihydrodibenzo[c,f][1,2]thiazepin-11-yl)amino)butanoate], the EC50 was 0.27 ± 0.038 µM in data set [1] and more than 10 µM in data set [2].
The corresponding values for `CN1c2ccccc2C(NCCCCC(=O)O)c2ccc(Br)cc2S1(=O)=O` (stereo not shown) [Compound 7d, 5-((3-Bromo-6-methyl-5,5-dioxido-6,11-dihydrodibenzo[c,f][1,2]thiazepin-11-yl)amino)pentanoic acid hydrochloride salt] are 0.405 µM and more than 10 µM.
Regarding `CN1c2ccccc2C(NCCC(=O)O)c2ccc(Cl)cc2S1(=O)=O` (stereo not shown) [Compound 7h, 3-((3-Chloro-6-methyl-5,5-dioxido-6,11-dihydrodibenzo[c,f][1,2]thiazepin-11-yl)amino)propanoic acid hydrochloride salt], the EC50 is 24.9 ± 12.6 µM in data set [1] and more than 10 µM in data set [2].
The corresponding values for `CCOC(=O)CCCCCNC1c2ccccc2N(C)S(=O)(=O)c2cc(Cl)ccc21` (stereo not shown) [Compound 6j, Ethyl 6-((3-chloro-6-methyl-5,5-dioxido-6,11-dihydrodibenzo[c,f][1,2]thiazepin-11-yl)amino)hexanoate] are 0.318 ± 0.162 µM and 13.9 ± 4.8 µM.
Consider `CN1c2ccccc2C(NCCCCC(=O)O)c2ccc(I)cc2S1(=O)=O` (stereo not shown) [Compound 7e, 5-((3-Iodo-6-methyl-5,5-dioxido-6,11-dihydrodibenzo[c,f][1,2]thiazepin-11-yl)amino)pentanoic acid hydrochloride salt], for which the EC50 in data set [1] is 0.0183 ± 0.0002 µM; in data set [2], 8.9 ± 0.007 µM.
On to `CCOC(=O)CCCCCNC1c2ccccc2N(C)S(=O)(=O)c2cc(Br)ccc21` (stereo not shown) [Compound 6f, Ethyl 6-((3-bromo-6-methyl-5,5-dioxido-6,11-dihydrodibenzo[c,f][1,2]thiazepin-11-yl)amino)hexanoate], for which the EC50 in data set [1] turned out to be 0.0908 ± 0.0314 µM; in data set [2], 11.7 ± 0.06 µM.
